Experimental data taken from the NIST ThermoML archive (doi:10.1021/je700700f).
Numbers after ± are expanded uncertainties.

Key:
[1] = 298.15 K, Liquid; for viscosity: Capillary tube (Ostwald / Ubbelohde) method
[2] = refractive index (Na D-line) (dimensionless); conditions: 298.15 K; 101.33 kPa; Liquid; Standard Abbe refractometry
[3] = xn = mol fraction of the nth substance listed; conditions: 298.15 K, 101 kPa, Liquid; for viscosity: Capillary tube (Ostwald / Ubbelohde) method
[4] = refractive index (Na D-line) (dimensionless); xn = mol fraction of the nth substance listed; conditions: 298.15 K, 101 kPa, Liquid, Standard Abbe refractometry

CCOS(=O)(=O)[O-].CCn1cc[n+](C)c1 [1-ethyl-3-methylimidazolium ethyl sulfate]
[1], 101.33 kPa
Conditions | mass density [kg/m3] | viscosity [mPa·s]
– | 1237.63 ± 1.7 | 97.58 ± 3.2

CCCO [propan-1-ol]
Conditions | refractive index
[2] | 1.38309 ± 0.00068

[1], 101 kPa
Conditions | mass density [kg/m3] | viscosity [mPa·s]
– | 799.6 ± 0.4 | 2.017 ± 0.012

CCCO [propan-1-ol] + O
Conditions | mass density, [3] [kg/m3] | refractive index, [4] | viscosity, [3] [mPa·s]
x1 = 0.0504 | 975.1 ± 0.2 | 1.34612 ± 0.00068 | 1.616 ± 0.011
x1 = 0.0993 | 953.3 ± 0.2 | 1.35475 ± 0.00068 | 2.121 ± 0.013
x1 = 0.1986 | 914.9 ± 0.3 | 1.36491 ± 0.00068 | 2.599 ± 0.015
x1 = 0.2979 | 887.2 ± 0.3 | 1.37116 ± 0.00068 | 2.691 ± 0.015
x1 = 0.3949 | 866.9 ± 0.4 | 1.37516 ± 0.00068 | 2.61 ± 0.015
x1 = 0.4955 | 850.3 ± 0.4 | 1.37805 ± 0.00068 | 2.494 ± 0.014
x1 = 0.5953 | 836.9 ± 0.4 | 1.38008 ± 0.00068 | 2.339 ± 0.014
x1 = 0.6995 | 825.6 ± 0.4 | 1.38154 ± 0.00068 | 2.221 ± 0.013
x1 = 0.7969 | 816.3 ± 0.4 | 1.38239 ± 0.00068 | 2.124 ± 0.013
x1 = 0.8983 | 807.7 ± 0.4 | 1.38299 ± 0.00068 | 2.026 ± 0.012
x1 = 0.9518 | 803.5 ± 0.4 | 1.38308 ± 0.00068 | 1.998 ± 0.012
x1 = 1 | 799.6 ± 0.4 | 1.38309 ± 0.00068 | 2.017 ± 0.012

CC(C)O [propan-2-ol]
Conditions | refractive index
[2] | 1.375 ± 0.0007

[1], 101 kPa
Conditions | mass density [kg/m3] | viscosity [mPa·s]
– | 780.7 ± 0.5 | 2.082 ± 0.013

CC(C)O [propan-2-ol] + O
Conditions | mass density, [3] [kg/m3] | refractive index, [4] | viscosity, [3] [mPa·s]
x1 = 0.0491 | 974.6 ± 0.2 | 1.3456 ± 0.0007 | 1.718 ± 0.011
x1 = 0.1008 | 953.6 ± 0.2 | 1.3557 ± 0.0007 | 2.495 ± 0.015
x1 = 0.2011 | 912.6 ± 0.3 | 1.365 ± 0.0007 | 3.038 ± 0.017
x1 = 0.2994 | 881.6 ± 0.3 | 1.3697 ± 0.0007 | 3.087 ± 0.018
x1 = 0.3992 | 857.7 ± 0.4 | 1.3724 ± 0.0007 | 2.924 ± 0.017
x1 = 0.4981 | 838.8 ± 0.4 | 1.374 ± 0.0007 | 2.693 ± 0.016
x1 = 0.5979 | 823.5 ± 0.4 | 1.3749 ± 0.0007 | 2.489 ± 0.015
x1 = 0.6987 | 810.6 ± 0.4 | 1.3754 ± 0.0007 | 2.274 ± 0.014
x1 = 0.7993 | 799.4 ± 0.5 | 1.3756 ± 0.0007 | 2.153 ± 0.013
x1 = 0.8998 | 789.8 ± 0.5 | 1.3754 ± 0.0007 | 2.073 ± 0.013
x1 = 0.9495 | 785.4 ± 0.5 | 1.3752 ± 0.0007 | 2.063 ± 0.013
x1 = 1 | 780.7 ± 0.5 | 1.375 ± 0.0007 | 2.082 ± 0.013
